From PubChem BioAssay AID1996
Values after ≈ are worked out from the molar mass of the structure shown.

conditions: buffer; pH 7.4; 200.0 µM

SMILES | solubility kinetic [µg/mL]
CCc1ccc(C(=O)NC(=S)NCc2cccnc2)cc1 | 39.9 (≈ 133 µM)
CNc1ncnc2sc(-c3ccccc3)cc12 | 4.3 (≈ 17.8 µM)
O=S(=O)(N=C(NS(=O)(=O)c1ccc(Cl)cc1)c1ccccc1)c1ccc(Cl)cc1 | > 70.4
Cc1ccccc1NC(=O)CN1CCN(C(=O)c2ccco2)CC1 | > 49.1
O=C(Nc1nc2ccccc2[nH]1)c1ccc(Cl)cc1 | 1.8 (≈ 6.62 µM)
CC(=O)c1cccc(NC(=O)/C=C/c2ccc(S(=O)(=O)N3CCOCC3)cc2)c1 | 5.1 (≈ 12.3 µM)
CCC(=O)NC(c1ccccc1)c1c(O)ccc2ccccc12 (configuration not stated) | 0.9 (≈ 2.95 µM)
CCOc1ccc(C2C(C#N)=C(N)Oc3nc[nH]c(=O)c32)cc1 (configuration not stated) | > 46.5
Cn1ccsc1=NC(=O)c1ccc(OC(F)(F)F)cc1 | 9.3 (≈ 30.8 µM)
O=C(Nc1nc(-c2ccc(F)c(F)c2)cs1)Nc1ccc(F)cc1F | < 0.3
NS(=O)(=O)c1ccc(CCNC(=O)C2CCCO2)cc1 (configuration not stated) | > 44.8
O=C(Nc1cc2c(cc1Br)OCCO2)c1cccnc1 | > 50.3
O=C1NC(=O)N(Cc2ccc(F)cc2)C(=O)/C1=C\c1ccoc1 | 46.6 (≈ 148 µM)
COc1ccc(N2CCN(C(=O)c3cc(C)oc3C)CC2)cc1 | 42.2 (≈ 134 µM)
CSc1ccccc1NC(=O)Cc1ccccc1 | > 38.6
CS(=O)(=O)c1ccccc1C(=O)Nc1nc2ccccc2[nH]1 | > 47.3
CN(c1ccc(OCC(=O)NC2CCC(O)CC2)cc1)S(=O)(=O)c1ccc(Cl)cc1 (configuration not stated) | > 67.9
CC(C)NC(=O)c1cc2c(=O)n3ccccc3nc2s1 | < 0.2
O=S(=O)(NC1CCCCCCC1)c1ccc(F)cc1 | > 42.8
COC(=O)c1c(-c2ccc(F)cc2)csc1NC(=O)C1CCCO1 (configuration not stated) | 5.2 (≈ 14.9 µM)
OCCN(CC#CCn1c2ccccc2c2ccccc21)CCO | > 48.4
O=C(OCC(=O)N1CCOCC1)c1ccc(Cl)c(S(=O)(=O)N2CCc3ccccc32)c1 | 32.4 (≈ 69.7 µM)
CC1CCCN(C(=O)c2cc(-c3cccs3)nc3ccccc23)C1 (configuration not stated) | 17.2 (≈ 51.1 µM)
O=C(CNC(=O)c1ccccc1F)NCc1ccncc1 | > 43.1

SMILES | solubility kinetic [µg/mL]
Cc1ccc(C(=O)O/N=C(\N)c2ccc(C(F)(F)F)cn2)cc1 | < 0.2
O=C(COC(=O)/C=C/c1cccs1)NC1CCCCC1 | 9.4 (≈ 32 µM)
O=C1c2ccccc2C(=O)N1c1cccc2ccccc12 | 13.7 (≈ 50.1 µM)
Cc1ccc(CSCc2ccc(C(=O)NC3CCCC3)o2)cc1 | 1.9 (≈ 5.77 µM)
Nc1nc2ccccc2n1CCOc1ccc(Cl)cc1 | 25.8 (≈ 89.7 µM)
O=C(Nc1ccc(Cl)cc1)C1CCCC1 | 15.8 (≈ 70.6 µM)
CCn1c2ccccc2c2cc(NC(=O)c3ccc(=O)oc3)ccc21 | 1.2 (≈ 3.61 µM)
COc1ccccc1Nc1nc(Cl)nc(NC(C)(C)C)n1 | 6.5 (≈ 21.1 µM)
C/C(CC(=O)Nc1ccccn1)=N\NC(=O)c1cccc(C)c1 | > 46.6
COc1cc(-c2noc(CCC(=O)NC3CCCCC3)n2)cc(OC)c1OC | 10 (≈ 25.7 µM)
CC(CN1C(C)CCCC1C)OC(=O)c1ccccc1F.Cl (configuration not stated) | > 49.5
Cl.c1ccc(CNc2c3c(nc4ccccc24)CCC3)cc1 | > 46.6
Cc1nc2ccc(Cl)cc2c(=O)n1-c1ccc([N+](=O)[O-])cc1 | 3.7 (≈ 11.7 µM)
Cc1cccc(C)c1Nc1c(-c2ccccc2O)nc2ncccn12 | 0.4 (≈ 1.21 µM)
CC1(C)Cc2nc(Cl)c(C(N)=O)cc2CO1 | > 36.1
Cc1ccc(C(=O)C2CCN(C(=S)NCC3CCCO3)CC2)cc1 (configuration not stated) | 46.7 (≈ 135 µM)
O=C1OC(Nc2nc(-c3ccc(F)cc3)cs2)c2ccccc21 (configuration not stated) | 1.9 (≈ 5.82 µM)
O=C(COC(=O)c1ccc(Cl)nc1)NC1CCCCCC1 | > 46.6
Cc1ccccc1OCCC(=O)N1CCN(S(=O)(=O)c2ccccc2F)CC1 | 38.5 (≈ 94.7 µM)
Cc1ccc(S(=O)(=O)/C(=C\N(C)C)c2cnc(Cl)s2)cc1 | > 51.4
OCC(O)C1OC(Nc2ccc(Br)cc2)C(O)C1O (configuration not stated) | > 50.1
O=C(NC1CCCCCC1)C(Cc1ccccc1)n1cccc1 (configuration not stated) | 10.6 (≈ 34.1 µM)
Cc1ccc(OCC(=O)N2CCN(S(C)(=O)=O)CC2)cc1 | > 46.9
COc1ccc(CNCC(O)(c2ccccc2)c2ccccc2)cc1 | > 50

SMILES | solubility kinetic [µg/mL]
COc1ccccc1N(CCOc1ccccc1)S(=O)(=O)c1ccccc1 | 3.9 (≈ 10.2 µM)
COc1ccc(C(=O)N[C@H](C(=O)Nc2sccc2C(N)=O)C(C)C)cc1 | > 56.3
O=C(COC(=O)CNC(=O)c1ccc(Cl)cc1)NC1CCCCCC1 | 18 (≈ 49.1 µM)
Cc1ccccc1OCC(=O)NCCNC(=O)c1ccncc1 | > 47
CC1CCN(S(=O)(=O)c2cccc3cccnc23)CC1 | 41.8 (≈ 144 µM)
O=C(Nc1ccccc1)N1CCCN(c2ccc(C(F)(F)F)cn2)CC1 | 9.7 (≈ 26.6 µM)
COc1ccc2[nH]cc(CCNC(=O)c3ccc4ccccc4n3)c2c1 | 1.6 (≈ 4.63 µM)
COc1ccc(NC(=O)CN(C)C(=O)c2ccc(=O)[nH]c2)cc1 | > 47.3
CC(C)(C)NC(=O)/C(=C/c1cccnc1)NC(=O)c1ccco1 | > 47
Cc1noc2ncnc(Oc3ccc(C(C)(C)C)cc3)c12 | < 0.2
O=C(Nc1ccsc1C(=O)O)c1cccc(C(F)(F)F)c1 | > 47.3
CC(Cl)C(=O)c1c[nH]c2ccccc12 (configuration not stated) | 21.4 (≈ 103 µM)
CCOC(=O)c1ccc(NC(=S)Nc2cc(C)cc(C)n2)cc1 | < 0.2
Cc1ccc(S(=O)(=O)CCC(=O)N2CCN(c3ccccc3O)CC2)cc1 | 35.9 (≈ 92.4 µM)
COc1ccc(NC(=O)C2CCCN(C(=O)Nc3ccc(OC)cc3)C2)cc1 (configuration not stated) | 7.5 (≈ 19.6 µM)
Cc1ccc(OCC(=O)N2CCCCC2C)c([N+](=O)[O-])n1 (configuration not stated) | > 44
Cc1csc(NC(=O)c2ccccc2)n1 | > 32.7
O=C(/C=C/c1ccccc1)Nc1sc2c(c1C(=O)O)CCC2 | > 47
CC(=O)c1c(C)[nH]c(C(=O)Nc2cccc(C)c2C)c1C | 2 (≈ 7.03 µM)
O=C(CN1CCc2cc3c(cc2C1)OCCCO3)Nc1ccccc1 | 4.4 (≈ 13 µM)
Cc1ccc(S(=O)(=O)N(C)C)cc1NC(=O)C1CCC1 | 39.7 (≈ 134 µM)
c1ccc2[nH]c(-c3ccc4c(c3)OCO4)nc2c1 | 34.4 (≈ 144 µM)
COc1cc(OC)cc(C(=O)OCC(=O)Nc2cccc(S(=O)(=O)NC3=NCCCCC3)c2)c1 | 33.3 (≈ 68 µM)
Cc1cc(C)c(C(=O)Nc2ccccc2)c(CC(C)(C)C(=O)O)c1 | > 48.8

SMILES | solubility kinetic [µg/mL]
Cc1cc([N+](=O)[O-])ccc1NC(=O)CCC(=O)N1CCCC1 | > 45.8
CCOC(=O)C1=C(O)/C(=C/c2cc(C)n(-c3ccccc3)c2C)N=C1C | 30.7 (≈ 87.6 µM)
O=C(Oc1cccc(OC(=O)N2CCCCC2)c1)N1CCCCC1 | 20.8 (≈ 62.6 µM)
CCSc1nnc(SCC(=O)Nc2cc(C)on2)s1 | > 47.5
Nc1nc(SCC(=O)NC2CCCC2)[nH]c(=O)c1NC(=O)c1cccs1 | 4.4 (≈ 11.2 µM)
COc1ccc(S(=O)(=O)N[C@@H](CSCc2ccccc2)C(=O)O)cc1 | > 57.2
COc1ccccc1NC(=O)N1CCN(CCc2ccccc2)CC1 | 50.7 (≈ 149 µM)
Cc1cccc(NC(=O)CCCN2C(=S)NC(C)(C)CC2C)c1C (configuration not stated) | > 52.1
O=C(COC(=O)c1ccc(S(=O)(=O)N2CCOCC2)cc1)NCc1ccccc1 | 8.6 (≈ 20.6 µM)
Cc1cc(C)c(-c2nc3ccccc3s2)[nH]1 | 0.8 (≈ 3.5 µM)
O=C(NCCCn1ccnc1)c1ccc2ccccc2c1 | 34.8 (≈ 125 µM)
Fc1ccc(-c2csc(-c3cccnc3)n2)cc1F | 0.7 (≈ 2.55 µM)
Cc1ccccc1C(=O)NC1CCSC1=O (configuration not stated) | > 35.3
O=C(O)c1cn(-c2ccc(F)cc2)c2cc(Cl)c(F)cc2c1=O | > 50.4
N#CC1(CCCN2CCCCC2)c2ccccc2CCc2ccccc21.O=C(O)C(=O)O | > 65.2
COC(=O)C1=C(C)NC(=O)NC1c1ccc2ccccc2c1 (configuration not stated) | < 0.3
CC(C)CCNC(=O)c1cc2c(=O)[nH]c3ccccc3c2s1 | < 0.3
Cc1ccc(S(=O)(=O)n2c(C)nc3cc(C)ccc32)cc1 | 32 (≈ 107 µM)
CCOC(=O)c1cc2c(ccn2C)n1Cc1ccc(C#N)cc1 | 2.3 (≈ 7.48 µM)
COc1ccc(-c2cn(-c3ccc(C)cc3C)c(=S)[nH]2)cc1OC | 16.8 (≈ 49.3 µM)
CC(OC(=O)CC1CC2CCC1C2)C(=O)Nc1ccc(C(N)=O)cc1 (configuration not stated) | > 51.7
CN(C)C(=O)N(CCCN1CCOCC1)Cc1cccc2ccccc12 | > 53.3
Cc1cccc(NC(=O)Nc2ccccc2)n1 | 2.5 (≈ 11 µM)
CCN(C(=O)C(C)Sc1nnc(-c2ccncc2)n1C)C1CCCCC1 (configuration not stated) | > 56

SMILES | solubility kinetic [µg/mL]
COc1ccccc1OCCNC(=O)CC(NC(C)=O)c1ccccc1 (configuration not stated) | 53.4 (≈ 150 µM)
CC(C)OP(=O)(OC(C)C)C(C)NC(=O)Cc1ccccc1 (configuration not stated) | 44.4 (≈ 136 µM)
O=C(Nc1ccccc1)c1cccc(Cn2cc(C(F)(F)F)ccc2=O)c1 | 2 (≈ 5.37 µM)
O=C(Nc1ccc(NC(=O)c2ccccc2F)cn1)c1ccco1 | 8.4 (≈ 25.8 µM)
CC(=O)c1ccc([N+](=O)[O-])c(CS(=O)(=O)c2ccccc2)c1 | < 0.7
O=C(NC(=S)NCc1nc2ccccc2[nH]1)c1ccc(F)cc1 | 45.3 (≈ 138 µM)
N#Cc1cnc(NCc2ccc(Cl)cc2Cl)nc1 | 0.5 (≈ 1.79 µM)
COc1cccc(Oc2ccc(S(=O)(=O)N3CCOCC3)cc2[N+](=O)[O-])c1 | 11 (≈ 27.9 µM)
CCc1c(-c2ccccc2)[n+](=O)c2c(n1[O-])CCC2 | > 38.4
O=C(COC(=O)c1ccc[nH]c1=O)NC1CC1 | 32.3 (≈ 137 µM)
CCOc1ccccc1Oc1nc(-c2ccccc2O)nc2ccccc12 | 0.6 (≈ 1.67 µM)
CCc1nc(CN2CCN(c3cc(C(F)(F)F)ccn3)CC2)c(C)[nH]1 | 47.6 (≈ 135 µM)
Cc1ccc(C(O)c2ccc(-n3ccnc3)cc2)cc1 (configuration not stated) | 39.5 (≈ 149 µM)
Cc1nc(-c2ccccn2)nc(N2CCOCC2)c1Cl | > 43.6
Cl.Clc1cccc(OCCn2ccnc2)c1 | > 38.9
Cc1cccc(Cl)c1NC(=S)NCCc1ccccn1 | > 45.9
CC1CCN(CC(O)COC2CC(C)CC(C)(C)C2)CC1.Cl (configuration not stated) | 45.5
Cc1c(NC(=O)c2cc(S(=O)(=O)N3CCCCC3)ccc2Cl)c(=O)n(-c2ccccc2)n1C | > 73.3
Cc1cc(C)cc(OCC(=O)OCc2cc([N+](=O)[O-])cc3c2OCOC3)c1 | 3.9 (≈ 10.4 µM)
Nc1nnc(SCC(=O)NC2CCCCCC2)s1 | > 43
NC(=O)C(=O)NCCCN1CCOCC1 | > 32.3
